Article PMC12349723, “Computationally accelerated identification of P-glycoprotein inhibitors” (PLOS One, 2025)
Several values for one entry are separate records, joined by “and”; a condition that tells them apart may be missing. Identical values can stand only once. Like-named read-outs stand apart in the source and are kept apart here.

Key:
P-gp = molecular target: T1, P-gp (Homo sapiens, UniProt P08183); assay: Top Hit classification from combined in vitro criteria; settings: reverse MDR, do not increase PTX toxicity in chemo-sensitive cancer cells, non-toxic to noncancerous cells, not P-gp substrates
T1 construct: The MDR, P-gp overexpressing DU145-TXR cells were maintained under positive selection pressure; endogenous in cells; host or cells: DU145-TXR (paclitaxel-resistant sub-line of DU145 human prostate cancer cells)

DU145 cells = assay: MTT viability assay, non-P-gp overexpressing DU145 parental line, with or without PTX; format: cell-based, human; settings: for viability at 15 µM: Homo sapiens, DU-145, 48 h; for Sensitization of DU145 cells to PTX: 15 µM compound + PTX vs PTX alone
Procedure: The chemotherapeutic sensitive DU145 human prostate cancer cells and the multidrug resistant sub-line, DU145-TXR, were generous gifts from Dr. Evan Keller (University of Michigan, Ann Arbor, MI). The MDR, P-gp overexpressing DU145-TXR cells were maintained under positive selection pressure by supplementing complete medium with 10 nM paclitaxel (Acros Organics, NJ). […] The MDR, P-gp overexpressing A2780-ADR cell line was maintained under positive selection pressure by supplementing complete medium with 100 nM doxorubicin (Fisher Scientific, NJ). The non-cancerous HFL1 (human lung fibroblast) cell line cell line was a generous gift from Dr. Robert Harrod (Southern Methodist University, Dallas, TX) and was maintained in complete F12K media consisting of F12K with 10% fetal bovine serum, 100 U/mL penicillin, and 100 µg/mL streptomycin (Gibco). Flasks and 96 well plates that were used with the non-cancerous line HFL1 were pre-treated with 0.1 mg/ml Collagen Type 1 (Gibco) and rinsed with PBS (Fisher).
Culture of the DU145, DU145-TXR, and HFL1 cell lines was performed as described in [8]. Culture of the A2780 and A2780-ADR cell lines was performed as described in [9]. MTT assays were performed as described in [8] with minor modifications. […] Data represent the mean of two separate experiments, with n = 3 samples per experiment (n = 6 total) (S4 Table).
MTT assays measure the reduction of yellow, water soluble 3-(4,5-dimethylthiazol-2-yl)-2,5-diphenyltetrazolium bromide (MTT) to blue, insoluble formazan crystals by cellular reductase processes in living cells. Cells were trypsinized from monolayers and seeded in complete medium in 96 well plates. Cancerous cell lines (DU145, DU145-TXR, A2780, A2780-ADR) were seeded at 3,000 cells per well in complete RPMI medium. The non-cancerous HFL1 line was seeded at 4,000 cells per well in complete F12K medium, in collagen-treated plates (Collagen Type 1, Gibco). Cells were incubated with experimental compounds for 48 hours at 37 °C and 5% CO2 in a humidified incubator. At 48 hours, MTT was added (20 µL/well of 5 mg/mL MTT in PBS) to each well. After incubation for 4 hours, the media was removed, and the formazan crystals were dissolved in 100 µL DMSO per well. Plates containing the semi-adherent A2780 or A2780-ADR lines were spun at 1400 rpm for 3 minutes prior to aspiration of media, and the addition of DMSO. Plates were shaken for 10 minutes at 500 rpm on an Orbital shaker (LabDoctor from MidSci, St Louis, MO). The absorbance was measured at 570 nm using a Bio-Tek Cytation 5 (Bio-Tek, Winooski, VT). The measured absorbance value was correlated with the number of metabolically active cells in that well, corrected for absorbance of media. The percent of cell viability (termed ‘survival’ here) was calculated as a percentage of survival of the control condition, which refers to vehicle-treated (DMSO as vehicle) cells, or vehicle-and-chemotherapeutic-treated cells, if testing a compound’s ability to re-sensitize cells to a chemotherapeutic. Percent survival was calculated using the following equation:
% Survival=100 × absorbance of experimental cells/mean absorbance of control treated cells
For DU145-TXR, DU145, HFL1 and A2780 cells – data are the mean ± one standard deviation, 8 samples per compound, from at least two independent trials per compound. […] For A2780-ADR cells, data are the mean ± one standard deviation with 12 samples per compound, from at least two independent trials per compound.
67 compounds were chosen from computational screens for testing in vitro. A) DU145-TXR cells were exposed to 15 µM experimental compound with or without 500 nM of the P-gp substrate and chemotherapeutic paclitaxel (PTX).

[1] = DU145 cells, 48 h, mean of 8 samples
[2] = DU145 cells, 48 h, mean of 8 samples, read-out: % Survival, Mean, 15 µM Compound alone
[3] = DU145 cells, 48 h, single samples, 2 trials x 4 samples
[4] = DU145 cells, 48 h, single samples, 2 trials x 4 samples, read-out: % Survival, 15 µM Compound alone (individual samples)

T1 sequence (P08183 whole entry): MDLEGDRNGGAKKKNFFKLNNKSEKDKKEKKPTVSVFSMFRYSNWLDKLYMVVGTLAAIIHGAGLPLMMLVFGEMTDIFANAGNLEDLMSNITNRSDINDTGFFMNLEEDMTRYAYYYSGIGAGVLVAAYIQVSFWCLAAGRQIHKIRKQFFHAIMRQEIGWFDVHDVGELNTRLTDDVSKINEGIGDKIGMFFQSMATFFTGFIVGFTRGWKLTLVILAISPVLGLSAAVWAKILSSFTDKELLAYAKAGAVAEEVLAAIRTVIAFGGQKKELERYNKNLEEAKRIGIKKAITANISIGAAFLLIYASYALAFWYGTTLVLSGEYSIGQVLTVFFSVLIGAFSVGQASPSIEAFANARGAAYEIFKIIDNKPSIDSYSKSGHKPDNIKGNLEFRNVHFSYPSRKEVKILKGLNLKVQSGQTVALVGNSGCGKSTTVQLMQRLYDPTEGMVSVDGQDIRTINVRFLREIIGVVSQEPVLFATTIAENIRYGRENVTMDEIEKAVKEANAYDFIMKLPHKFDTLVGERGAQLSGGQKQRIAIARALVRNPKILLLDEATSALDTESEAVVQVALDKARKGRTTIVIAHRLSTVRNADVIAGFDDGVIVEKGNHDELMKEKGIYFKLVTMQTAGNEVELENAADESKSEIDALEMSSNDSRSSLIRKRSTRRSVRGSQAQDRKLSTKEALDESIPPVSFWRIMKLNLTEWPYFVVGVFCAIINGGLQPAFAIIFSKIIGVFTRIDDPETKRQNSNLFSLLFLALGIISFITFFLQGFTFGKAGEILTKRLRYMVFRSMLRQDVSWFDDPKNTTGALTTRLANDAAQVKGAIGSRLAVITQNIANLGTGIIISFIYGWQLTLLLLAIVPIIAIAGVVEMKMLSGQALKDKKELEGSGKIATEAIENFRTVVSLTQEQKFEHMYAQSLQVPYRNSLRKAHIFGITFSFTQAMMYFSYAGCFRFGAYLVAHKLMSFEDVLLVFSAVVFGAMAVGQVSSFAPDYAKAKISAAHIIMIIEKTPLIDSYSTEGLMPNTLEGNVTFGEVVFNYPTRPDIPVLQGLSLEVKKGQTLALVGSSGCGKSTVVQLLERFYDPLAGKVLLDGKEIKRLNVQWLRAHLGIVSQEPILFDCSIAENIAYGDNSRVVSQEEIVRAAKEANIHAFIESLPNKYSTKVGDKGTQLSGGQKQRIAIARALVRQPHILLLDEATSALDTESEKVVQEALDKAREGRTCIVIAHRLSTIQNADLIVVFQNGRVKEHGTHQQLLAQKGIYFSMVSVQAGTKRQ

Row | Compound | Top Hit (P-gp) | % Survival, Mean, 15 µM compound + 500 nM PTX (DU145 cells; [1]) | viability at 15 µM (DU145 cells; [2]) | Sensitization of DU145 cells to PTX (DU145 cells) | % Survival, 15 µM Compound alone (individual samples) (DU145 cells; [3]) | % Survival, 15 µM compound + 500 nM PTX (individual samples) (DU145 cells; [3]) | viability at 15 µM (DU145 cells; [4]) | % Survival, Mean, 15 µM Compound alone (DU145 cells; [1])
1 | Cn1cnnc1SCc1c(C(=O)O)nnn1-c1nonc1N [Compound 59, Cn1cnnc1SCc1c(nnn1-c1nonc1N)C(O)=O] | No |  |  |  |  |  |  | 
2 | Nc1nonc1-n1nnc(C(=O)N/N=C/c2c3ccccc3cc3ccccc23)c1COc1ccc(F)cc1 [Compound 60, Nc1nonc1-n1nnc(C(=O)N\N=C\c2c3ccccc3cc3ccccc23)c1COc1ccc(F)cc1] | No |  |  |  |  |  |  | 
3 | CCN1CCN(Cc2c(C(=O)N/N=C3/C(=O)N(C)c4ccccc43)nnn2-c2nonc2N)CC1 [Compound 61, CCN1CCN(Cc2c(nnn2-c2nonc2N)C(=O)N\N=C2\C(=O)N(C)c3ccccc23)CC1] | No | 14.3% | 55.6% |  |  |  |  | 
4 | O=C(c1cc2ccccc2[nH]1)N1CCN(S(=O)(=O)c2cccc3nonc23)CC1 [Compound 66, O=C(N1CCN(CC1)S(=O)(=O)c1cccc2nonc12)c1cc2ccccc2[nH]1] | No |  |  |  |  |  |  | 
5 | O=C(c1nc(-c2ccc3cc[nH]c3c2)no1)N1CCN(c2nsc3ccccc23)CC1 [Compound 70, O=C(N1CCN(CC1)c1nsc2ccccc12)c1nc(no1)-c1ccc2cc[nH]c2c1] | Yes | 30.5% | 84.7% | insignificantly sensitize DU145 cells to PTX | 88% | 32% and 30% |  | 
6 | COc1ccc(OC)c(NC(=O)c2nnn(-c3ccc4noc(-c5ccccc5)c4c3)c2C)c1 [Compound 71, COc1ccc(OC)c(NC(=O)c2nnn(c2C)-c2ccc3noc(-c4ccccc4)c3c2)c1] | No |  |  |  |  |  |  | 
7 | Cc1onc(-c2ccccc2)c1-c1nnc(Cn2cnc3c(oc4ccccc43)c2=O)o1 [Compound 78, Cc1onc(c1-c1nnc(Cn2cnc3c4ccccc4oc3c2=O)o1)-c1ccccc1] | Yes | 33.6% | 89.2% | insignificantly sensitize DU145 cells to PTX | 94% | 31% |  | 
8 | NS(=O)(=O)c1cccc(NC(=O)CSc2nnnn2C2CC2)c1 [Compound 89, NS(=O)(=O)c1cccc(NC(=O)CSc2nnnn2C2CC2)c1] | No |  |  |  |  |  |  | 
9 | O=S(=O)(CCSc1nnc(-c2ccccc2)c2ccccc12)c1ccccc1 [Compound 96, O=S(=O)(CCSc1nnc(-c2ccccc2)c2ccccc12)c1ccccc1] | Yes | 28.8% | 77% | insignificantly sensitize DU145 cells to PTX | 65% | 26% |  | 
10 | O=S(=O)(Cc1nc2ccccc2n1CC(O)c1ccc(Cl)cc1)c1ccccc1 (stereo not drawn) [Compound 97, OC(Cn1c(CS(=O)(=O)c2ccccc2)nc2ccccc12)c1ccc(Cl)cc1] | Yes | 23.9% | 73.5% | insignificantly sensitize DU145 cells to PTX | 72% |  |  | 
11 | COc1cccc(N2CCN(c3ccc4nnc(CCC(=O)Nc5ccc(F)c(F)c5)n4n3)CC2)c1 [Compound 101, COc1cccc(c1)N1CCN(CC1)c1ccc2nnc(CCC(=O)Nc3ccc(F)c(F)c3)n2n1] | Yes | 24.0% | 89.9% | insignificantly sensitize DU145 cells to PTX | 89% |  | 92% | 
12 | Cc1ccc(-c2noc(-c3cn(Cc4ccc(NS(=O)(=O)c5ccccc5F)cc4)cn3)n2)cc1 [Compound 103, Cc1ccc(cc1)-c1noc(n1)-c1cn(Cc2ccc(NS(=O)(=O)c3ccccc3F)cc2)cn1] | No | 29.4% | 77.7% | insignificantly sensitize DU145 cells to PTX |  |  |  | 
13 | Cc1onc(-c2ccccc2)c1-c1nnc(Cn2cnc3ccccc3c2=O)o1 [Compound 111, Cc1onc(c1-c1nnc(Cn2cnc3ccccc3c2=O)o1)-c1ccccc1] | Yes | 19.3% | 73.5% | insignificantly sensitize DU145 cells to PTX | 72% |  | 80% | 
14 | O=C(NCc1cccc(F)c1)c1nnn2c1Sc1c(C(=O)NCc3cccc(F)c3)nnn1CC2 [Compound 122, Fc1cccc(CNC(=O)c2nnn3CCn4nnc(C(=O)NCc5cccc(F)c5)c4Sc23)c1] | No | 19.4% | 60.9% | insignificantly sensitize DU145 cells to PTX |  |  |  | 
15 | O=C(c1nc(-c2ccccn2)no1)N1CCN(c2nsc3ccccc23)CC1 [Compound 124, O=C(N1CCN(CC1)c1nsc2ccccc12)c1nc(no1)-c1ccccn1] | No | 20.9% | 76.9% | insignificantly sensitize DU145 cells to PTX | 85% | 17% and 26% |  | 
16 | COc1ccc2c3c([nH]c2c1)[C@H](CC(C)C)N1C(=O)[C@H](CCC(=O)OC(C)(C)C)NC(=O)[C@@H]1C3 [Ko143, reference compound] |  | 20.1% |  |  | 89% and 88% and 53% and 50% and 46% and 42% and 86% and 91% | 12% and 13% and 16% and 22% and 23% and 24% and 25% |  | 68.1%
17 | COc1cc2c(cc1OC)CN(CCc1ccc(NC(=O)c3cc(OC)c(OC)cc3NC(=O)c3cnc4ccccc4c3)cc1)CC2 [Tariquidar, reference compound] |  | 12.0% | 86.1% |  |  |  |  | 
